Laboratory results from patent EP0374249A1, “METHOD OF STERILIZING PLANT POLLEN” (VSESOJUZNY NAUCHNO-ISSLEDOVATELSKY INST. SELSKOKHOZYAISTV. …, priority 1988, dated 1989).

Legend:
[1] = test system: Hirse Sorte K-9693 Kormovoe 1; assay: Field test of pollen sterilisation, millet K-9693 Kormovoe 1; format: in vivo; details: 1% aqueous emulsion, 6 kg/ha; for Prozentsatz der Sterilität / Anzahl von Körnern der Rispe bei freier Bestäubung / Anzahl von Körnern der Rispe im Isolator: period V of organogenesis; for Anzahl von Körnern der Rispe bei freier Bestäubung: free pollination; for Anzahl von Körnern der Rispe im Isolator: isolated panicles; for Prozentsatz des Ansetzens von Körnern bei freier Bestäubung: period V, non-isolated control = 100%
Source text: (§1) Die gametozide Aktivität der erfindungsgemässen Sterilisationsmittel war im Feldversuch in verschiedenen Bodenklimatischen Zonen mit Teilstücken von 10 m^2 Grösse in drei- bis viermaliger Wiederholung nachgewiesen. Jedes Sterilisationsmittel wurde mindestens 5 Jahre lang geprüft.
(§2) Die Entwicklung der Perioden der Organogenese wird zytologischüberwacht. Die Behandlung von Pflanzen mit dem Sterilisationsmittel erfolgt am Anfang der fünften Periode der Organogenese nach Kupermann.
(§3) Mit dem Ahrenschiebe verwirklicht man die Isolierung von Hauptähren und anderen Stockwerken in Pergamentbeuteln. Bei Weizen und Tritikale werden Einzelisolatoren verwendet. Bei Roggen schliesst man je Ähre 5 bis 7 verschiedene nebeneinander befindliche Pflanzen unter einen gemeinsamen Isolator ein. Bei Hirse wird jede Rispe getrennt isoliert. Der Sterilitätsprozentsatz (X) für Weizen, Roggen, Tritikale und Hirse wird nach folgender Formel [formula] ermittelt.
(§4) Die Kornzahl in nicht isolierten ähren von Kontrollpflanzen wird bedingt für 100% Ansetzen bei freier Bestäubung angenommen.
(§5) Um zuverlässige Angaben zu erhalten, verwendet man 20 bis 25 Isolatoren jeder Wiederholung für Weisen und Tritikale, 10 bis 15 Gruppenisolatoren jeder Wiederholung für Roggen und Hirse.
Pflanzen der Hirse Sorte K-9693 Kormovoe 1 werden in der V. Periode der Organogenese (nach Kupermann) mit einer 1%igen wässrigen Emulsion von N-(2-Dimethylaminoäthyl) maleaminsäure, N-(3-Dimethylaminopropyl)maleaminsäure, N-Äthylmaleaminsäure, N-Karbamoylmaleaminsäure behandelt. Die Emulsion enthält 0,01 Masse% Dimethylformamid und 0,1 Masse% Kalziumalkylbenzolsulfonat mit 12 bis 14 Kohlenstoffatomen.
Der Verbrauch an Präparat beträgt 6 kg/ha. Als Kontrolle dienen Pflanzen, behandelt mit einem Verdünner ohne Sterilisationsmittel. Die Prüfergebnisse sind in der Tabelle13 dargestellt. […] Periode der Organogenese erhalten.

[2] = test system: tetraploidem Roggen Sorte Belta; assay: Field test of pollen sterilisation, tetraploid rye Belta; format: in vivo; details: 1% aqueous emulsion, 10 kg/ha; for Prozentsatz der Sterilität / Anzahl von Körnern der Ähre bei freier Bestäubung / Anzahl von Körnern der Ähre im Isolator: period V of organogenesis; for Anzahl von Körnern der Ähre bei freier Bestäubung: free pollination; for Anzahl von Körnern der Ähre im Isolator: isolated ears; for Prozentsatz des Ansetzens von Körnern bei freier Bestäubung: period V, non-isolated control ears = 100%
Source text: as §1, §2, §3, §4, §5
Pflanzen von tetraploidem Roggen Sorte Belta werden in der V. Periode der Organogenese (nach Kupermann) mit einer 1%igen wässrigen Emulsion von N-(2-Dimethylamino- .äthyl)maleaminsäure, N-(3-Dimethylaminopropyl)maleaminsäure, N-Äthylmaleaminsäure, N-(2-Hydroxyäthyl)maleaminsäure bzw. Karbamoylmaleaminsäure behandelt. Die Emulsion enthält 0,5 Masse% Kalziumalkylbenzolsulfonat mit 12 bis 14 Kohlenstoffatomen und 0,01 Masso% Tetrahydrofuran. Der Verbrauch an Präparat beträgt 10 kg/ha. Die Prüfergebnisse sind in der Tabelle 5 dargestellt. […] Periode der Organogenese erhalten.

[3] = test system: diploidem Roggen Sorte Voskhod 2; assay: Field test of pollen sterilisation, diploid rye Voskhod 2; format: in vivo; details: 1% aqueous emulsion, 10 kg/ha; for Prozentsatz der Sterilität / Anzahl von Körnern der Ähre bei freier Bestäubung / Anzahl von Körnern der Ähre im Isolator: period V of organogenesis; for Anzahl von Körnern der Ähre bei freier Bestäubung: free pollination; for Anzahl von Körnern der Ähre im Isolator: isolated ears; for Prozentsatz des Ansetzens von Körnern bei freier Bestäubung: period V, non-isolated control ears = 100%
Source text: Die Emulsion enthält 0,1 Masse% Kalziumalkylbenzolsulfonat und 0,01 Masse% Dimethylformamid. Der Verbrauch an Präparat beträgt 10 kg/ha. Als Kontrolle dienen Pflanzen, behandelt mit einem Lösungsmittel ohne Sterilisationsmittel.

[4] = Toxicity test in animals (LD50); details: in vivo; animal test, per kg animal weight; species and route not given
Source text: Alle erfindungsgemässen N-substituierten Maleaminsäuren, welche als Sterilisationsmittel zur Verwendung kommen, waren auf die Toxizität im Tierversuch geprüft. Die Prüfergebnisse haben ergeben, dass die angegebenen Verbindungen von schwacher oder mittlerer Toxizität sind.

[5] = test system: Winterweizens Sorte Bezostaya 1; assay: Field test of pollen sterilisation, winter wheat Bezostaya 1; format: in vivo, Winterweizen; details: 2% aqueous emulsion, 16 kg/ha; for Prozentsatz der Sterilität / Anzahl von Körnern der Ähre bei freier Bestäubung / Anzahl von Körnern der Ähre im Isolator: period V of organogenesis; for Anzahl von Körnern der Ähre bei freier Bestäubung: free pollination; for Anzahl von Körnern der Ähre im Isolator: isolated ears; for Prozentsatz des Ansetzens von Körnern bei breier Bestäubung: period V, non-isolated control ears = 100%
Source text: Pflanzen des Winterweizens Sorte Bezostaya 1 werden in der V. Periode der Organogenese durch Zerstäubung einer 2%igen wässrigen Emulsion von N-(2-Dimethylaminoäthyl)-maleaminsäure, N-(3-Dimethylaminopropyl)-maleaminsäure, N-Äthylmaleaminsäure, N-(2-Hydroxyäthyl)-maleaminsäure, N-Karbamoylmaleaminsäure mit Hilfe deiner Rückspritze behandelt. Die Emulsion enthält 0,1 Masse% Kalziumalkylbenzolsulfonat mit 12 bis 14 Kohlenstoffatomen. Als Adjuvans führt man in die Emulsion 0,01 Masse% Tetrahydrofuran ein.
Der Verbrauch an Präparat beträgt 16 kg/ha. Als Kontrolle dienen Pflanzen, behandelt mit einem Verdünner ohne Sterilisationsmitteln.

[6] = test system: Winterweizens Sorte Mir.onovskaya 808; assay: Field test of pollen sterilisation (gametocidal activity), winter wheat Mironovskaya 808; format: in vivo, Winterweizen; details: 2% aqueous emulsion, 20 kg/ha; for Prozentsatz der Sterilität / Anzahl von Körnern der Ähre bei freier Bestäubung / Anzahl von Körnern der Ähre im Isolator: period V of organogenesis; for Anzahl von Körnern der Ähre bei freier Bestäubung: free pollination; for Anzahl von Körnern der Ähre im Isolator: isolated ears; for Prozentsatz des Ansetzens von Körnern bei freier Bestäubung: period V, non-isolated control ears = 100%
Source text: Als Emulgierungsmittel wird 0,1 Masse% Kalziumalkylbenzolsulfonat mit 12 bis 14 Kohlenstoffatomen hinzugefügt. Als Adjuvans fährt man in die Emulsion 0,01 Masse% Dimethylsulfoxid ein. Der Verbrauch an Präparat beträgt 20 kg/ha. Als Kontrolle dienen Pflanzen, behandelt mit einem Verdünner ohne Sterilisationsmittel.

[7] = test system: diploidem Roggen Sorte Chulpan; assay: Field test of pollen sterilisation, diploid rye Chulpan; format: in vivo; details: 1% aqueous emulsion, 8 kg/ha; for Prozentsatz der Sterilität / Anzahl von Körnern der Ähre bei freier Bestäubung / Anzahl von Körnern der Ähre im Isolator: period V of organogenesis; for Anzahl von Körnern der Ähre bei freier Bestäubung: free pollination; for Anzahl von Körnern der Ähre im Isolator: isolated ears; for Prozentsatz des Ansetzens von Körnern bei freier Bestäubung: period V, non-isolated control ears = 100%
Source text: (§6) Mit dem Ahrenschiebe verwirklicht man die Isolierung von Hauptähren und anderen Stockwerken in Pergamentbeuteln. […] Bei Roggen schliesst man je Ähre 5 bis 7 verschiedene nebeneinander befindliche Pflanzen unter einen gemeinsamen Isolator ein. […] Der Sterilitätsprozentsatz (X) für Weizen, Roggen, Tritikale und Hirse wird nach folgender Formel [formula] ermittelt.
Die Emulsion enthält 0,01 Masse% Tetranydrofuran und 0,1 Masse% Kalziumalkylbenzolsulfonat mit 12 bis 14 Kohlenstoffatomen. Der Verbrauch an Präparat beträgt 8 kg/ha. Als Kontrolle dienen Pflanzen, behandelt mit einem Verdünner ohne Sterilisationsmittel.

[8] = test system: Hirse Sorte Mironovskoe 94; assay: Field test of pollen sterilisation, millet Mironovskoe 94; format: in vivo; details: 1% aqueous emulsion, 8 kg/ha; for Prozentsatz der Sterilität / Anzahl von Körnern der Rispe bei freier Bestäubung / Anzahl von Körnern der Rispe im Isolator: period V of organogenesis; for Anzahl von Körnern der Rispe bei freier Bestäubung: free pollination; for Anzahl von Körnern der Rispe im Isolator: isolated panicles; for Prozentsatz des Ansetzens von Körnern bei freier Bestäubung: period V, non-isolated control = 100%
Source text: as §1, §2, §3, §4, §5
Pflanzen der Hirse Sorte Mironovskoe 94 werden in der V. Periode der Organogenese (nach Kupermann) mit einer 1%igen wässrigen Emulsion von N-(2-Dimethylaminoäthyl)maleaminsäure, N-(3-Dimethylaminopropyl)maleaminsäure, N-Äthylmaleaminsäure, N-(2-Hydroxyäthyl)maleaminsäure, N-Karbamoylmaleaminsäure behandelt. Die Emulsion enthält 0,01 Masse% Dimethylaulfoxid und 0,1 Masse% Kalziumalkylbenzolsulfonat mit 12 bis 14 Kohlenstoffatomen. Der Verbrauch an Präparat beträgt 8 kg/ha. Als Kontrolle dienen Pflanzen, behandelt mit einem Verdünner ohne Sterilisationsmittel. Die Prüfergebnisse sind in der Tabelle 12 dargestellt. […] Periode der Organogenese erhalten.

[9] = test system: Sommerweizens Sorte Botanicheskaya 4; assay: Field test of pollen sterilisation, spring wheat Botanicheskaya 4; format: in vivo, Sommerweizen; details: 1% aqueous emulsion, 6 kg/ha; for Prozentsatz der Sterilität / Anzahl von Körnern der Ähre bei freier Bestäubung / Anzahl von Körnern der Ähre im Isolator: period V of organogenesis; for Anzahl von Körnern der Ähre bei freier Bestäubung: free pollination; for Anzahl von Körnern der Ähre im Isolator: isolated ears; for Prozentsatz des Ansetzens von Körnern bei freier Bestäubung: period V, non-isolated control ears = 100%
Source text: Pflanzen des Sommerweizens Sorte Botanicheskaya 4 werden in der V. Periode der Organogenese (nach Kupermann) mit einer 1%igen Wässrigen Emulsion von N-(2-Dimethyl-aminoäthyl)-maleaminsäure, N-(3-Dimethylaminopropyl)-maleaminsäure, N-Äthylmaleaminsäure, N-(2-Hydroxyäthyl)-maleaminsäure bzw. N-Karbamoylmaleaminsäure behandelt. Die Emulsion enthält 0,5 Masse% Kalziumalkylbenzolsulfonat mit 12 bis 14 Kohlenstoffatomen und 0,01 Masse% Dimethylsulfoxid als Adjuvans. Der Verbrauch an Präparat beträgt 6 kg/ha. Als Kontrolle dienen Pflanzen, behandelt mit einem Verdünner ohne Sterilisationsmittel.

[10] = test system: diploidem Roggen Sorte Talovskaya 12; assay: Field test of pollen sterilisation, diploid rye Talovskaya 12; format: in vivo; details: 1% aqueous emulsion, 6 kg/ha; for Prozentsatz der Sterilität / Anzahl von Körnern der Ähre bei freier Bestäubung / Anzahl von Körnern der Ähre im Isolator: period V of organogenesis; for Anzahl von Körnern der Ähre bei freier Bestäubung: free pollination; for Anzahl von Körnern der Ähre im Isolator: isolated ears
Source text: as §6
Pflanzen von diploidem Roggen Sorte Talovskaya 12 werden in der V. Periode der Organogenese (nach Kupermann) mit einer 1%igen wässrigen Emulsion von N-(2-Di- methylaminoäthyl)-maleaminsäure, N-(3-Dimethylaminopropyl)-maleaminsäure, N-Äthylmaleaminsäure, N-(2-Hydroxyäthyl)maleaminsäure, N-Karbamoylmaleaminsäure behandelt. Die Emulsion enthält 0,01 Masse% Dodezylsulfat und 0,1 Masse% Kalziumalkylbenzolsulfonat mit 12 bis _14 Kohlenstoffatomen. Der Verbrauch an Präparat beträgt 6 kg/ha. Als Kontrolle dienen Pflanzen, behandelt mit einem Verdünner ohne Sterilisationsmittel.

[11] = test system: Sommerweizens Sorte Moskovskaya 35; assay: Field test of pollen sterilisation, spring wheat Moskovskaya 35; format: in vivo, Sommerweizen; details: 1% aqueous emulsion, 10 kg/ha; for Prozentsatz der Sterilität / Anzahl von Körnern der Ähre bei freier Bestäubung / Anzahl von Körnern der Ähre im Isolator: period V of organogenesis; for Anzahl von Körnern der Ähre bei freier Bestäubung: free pollination; for Anzahl von Körnern der Ähre im Isolator: isolated ears; for Prozentsatz des Ansetzens von Körnern bei freier Bestäubung: period V, non-isolated control ears = 100%
Source text: Pflanzen des Sommerweizens Sorte Moskovskaya 35 werden in V. Periode der Organogenese (nach Kupermann) mit einer 1%igen wässrigen Emulsion von N-(2-Dimethyl-aminoäthyl)-maleaminsäure, N-(3-Dimethylaminopropyl)-maleaminsäure, N-Äthylmaleaminsäure, N-(2-Hydroxyäthyl) maleaminsäure bzw. N-Karbamoylmaleaminsäure behandelt. Die Emulsion enthält 0,5 Masse% Kalziumalkylbenzolsulfonat mit 12 bis 14 Kohlenstoffatomen als Emulgierungsmittel und 0,01 Masse% Dimethylformamid als Adjuvans. Der Verbrauch an Präparat beträgt 10 kg/ha. Als Kontrolle dienen Pflanzen, behandelt mit einem Verdünner ohne Sterilisationsmittel.

NC(=O)NC(=O)/C=C\C(=O)O [Beispiel 58, N-Karbamoylmaleaminsäure]
Prozentsatz der Sterilität [1]: 100,0% | Anzahl von Körnern der Rispe bei freier Bestäubung [1]: 133,6 | Anzahl von Körnern der Rispe im Isolator [1]: 0,0 | Prozentsatz des Ansetzens von Körnern bei freier Bestäubung [1]: 91,1%

O=C(O)/C=C\C(=O)NCCO [Beispiel 57, N-(2-Hydroxyäthyl)maleaminsäure]
Prozentsatz der Sterilität [1]: 100,0% | Anzahl von Körnern der Rispe bei freier Bestäubung [1]: 127,2 | Anzahl von Körnern der Rispe im Isolator [1]: 0,0 | Prozentsatz des Ansetzens von Körnern bei freier Bestäubung [1]: 86,7%

CN(C)CCNC(=O)/C=C\C(=O)O [Beispiel 54, N-(2-Dimethylaminoäthyl) maleaminsäure]
Prozentsatz der Sterilität [1]: 100,0% | Anzahl von Körnern der Rispe bei freier Bestäubung [1]: 124,2 | Anzahl von Körnern der Rispe im Isolator [1]: 0,0 | Prozentsatz des Ansetzens von Körnern bei freier Bestäubung [1]: 84,7%

CCNC(=O)/C=C\C(=O)O [Beispiel 56, N-Äthylmaleaminsäure]
Prozentsatz der Sterilität [1]: 100,0% | Anzahl von Körnern der Rispe bei freier Bestäubung [1]: 114,7 | Anzahl von Körnern der Rispe im Isolator [1]: 0,0 | Prozentsatz des Ansetzens von Körnern bei freier Bestäubung [1]: 78,2%

CCNC(=O)/C=C\C(=O)O [Beispiel 3, N-Äthylmaleaminsäure]
Prozentsatz der Sterilität [2]: 99,4% | Anzahl von Körnern der Ähre bei freier Bestäubung [2]: 52,3 | Anzahl von Körnern der Ähre im Isolator [2]: 0,3 | Prozentsatz des Ansetzens von Körnern bei freier Bestäubung [2]: 95,4% | Prozentsatz der Sterilität [3]: 100,0% | Anzahl von Körnern der Ähre bei freier Bestäubung [3]: 53,0 | Anzahl von Körnern der Ähre im Isolator [3]: 0,0 | Prozentsatz des Ansetzens von Körnern bei freier Bestäubung [3]: 96,0% | LD50 [4]: 2000 mg/kg | Prozentsatz der Sterilität [5]: 99,4% | Anzahl von Körnern der Ähre bei freier Bestäubung [5]: 42,1 | Anzahl von Körnern der Ähre im Isolator [5]: 0,2 | Prozentsatz des Ansetzens von Körnern bei breier Bestäubung [5]: 98,1% | Prozentsatz der Sterilität [6]: 99,5% | Anzahl von Körnern der Ähre bei freier Bestäubung [6]: 40,7 | Anzahl von Körnern der Ähre im Isolator [6]: 0,2 | Prozentsatz des Ansetzens von Körnern bei freier Bestäubung [6]: 95,5% | Prozentsatz der Sterilität [7]: 99,4% | Anzahl von Körnern der Ähre bei freier Bestäubung [7]: 49,8 | Anzahl von Körnern der Ähre im Isolator [7]: 0,3 | Prozentsatz des Ansetzens von Körnern bei freier Bestäubung [7]: 87,7% | Prozentsatz der Sterilität [8]: 100,0% | Anzahl von Körnern der Rispe bei freier Bestäubung [8]: 200,8 | Anzahl von Körnern der Rispe im Isolator [8]: 0,0 | Prozentsatz des Ansetzens von Körnern bei freier Bestäubung [8]: 88,3% | Prozentsatz der Sterilität [9]: 100,0% | Anzahl von Körnern der Ähre bei freier Bestäubung [9]: 28,2 | Anzahl von Körnern der Ähre im Isolator [9]: 0,0 | Prozentsatz des Ansetzens von Körnern bei freier Bestäubung [9]: 93,7% | Prozentsatz der Sterilität [10]: 100,0% | Anzahl von Körnern der Ähre bei freier Bestäubung [10]: 50,1 | Anzahl von Körnern der Ähre im Isolator [10]: 0,0 | Prozentsatz der Sterilität [11]: 98,5% | Anzahl von Körnern der Ähre bei freier Bestäubung [11]: 26,7 | Anzahl von Körnern der Ähre im Isolator [11]: 0,4 | Prozentsatz des Ansetzens von Körnern bei freier Bestäubung [11]: 97,1%

O=C(O)/C=C\C(=O)NCCO [Beispiel 4, N-(2-Hydroxyäthyl)-maleaminsäure]
Prozentsatz der Sterilität [2]: 99,6% | Anzahl von Körnern der Ähre bei freier Bestäubung [2]: 51,6 | Anzahl von Körnern der Ähre im Isolator [2]: 0,2 | Prozentsatz des Ansetzens von Körnern bei freier Bestäubung [2]: 94,2% | Prozentsatz der Sterilität [3]: 98,4% | Anzahl von Körnern der Ähre bei freier Bestäubung [3]: 52,2 | Anzahl von Körnern der Ähre im Isolator [3]: 0,8 | Prozentsatz des Ansetzens von Körnern bei freier Bestäubung [3]: 94,6% | LD50 [4]: 1500 mg/kg | Prozentsatz der Sterilität [5]: 100,0% | Anzahl von Körnern der Ähre bei freier Bestäubung [5]: 37,1 | Anzahl von Körnern der Ähre im Isolator [5]: 0,0 | Prozentsatz des Ansetzens von Körnern bei breier Bestäubung [5]: 86,5% | Prozentsatz der Sterilität [6]: 99,3% | Anzahl von Körnern der Ähre bei freier Bestäubung [6]: 39,8 | Anzahl von Körnern der Ähre im Isolator [6]: 0,3 | Prozentsatz des Ansetzens von Körnern bei freier Bestäubung [6]: 93,4% | Prozentsatz der Sterilität [7]: 99,8% | Anzahl von Körnern der Ähre bei freier Bestäubung [7]: 50,1 | Anzahl von Körnern der Ähre im Isolator [7]: 0,1 | Prozentsatz des Ansetzens von Körnern bei freier Bestäubung [7]: 88,2% | Prozentsatz der Sterilität [8]: 100,0% | Anzahl von Körnern der Rispe bei freier Bestäubung [8]: 215,0 | Anzahl von Körnern der Rispe im Isolator [8]: 0,0 | Prozentsatz des Ansetzens von Körnern bei freier Bestäubung [8]: 94,6% | Prozentsatz der Sterilität [9]: 100,0% | Anzahl von Körnern der Ähre bei freier Bestäubung [9]: 28,7 | Anzahl von Körnern der Ähre im Isolator [9]: 0,0 | Prozentsatz des Ansetzens von Körnern bei freier Bestäubung [9]: 95,3% | Prozentsatz der Sterilität [10]: 99,3% | Anzahl von Körnern der Ähre bei freier Bestäubung [10]: 53,2 | Anzahl von Körnern der Ähre im Isolator [10]: 0,3 | Prozentsatz des Ansetzens von Körnern bei freier Bestäubung ([10]; period V, non-isolated control ears = 100%): 94,7% | Prozentsatz der Sterilität [11]: 100,0% | Anzahl von Körnern der Ähre bei freier Bestäubung [11]: 27,0 | Anzahl von Körnern der Ähre im Isolator [11]: 0,0 | Prozentsatz des Ansetzens von Körnern bei freier Bestäubung [11]: 98,2%

CN(C)CCCNC(=O)/C=C\C(=O)O [Beispiel 55, N-(3-Dimethylaminopropyl)maleaminsäure]
Prozentsatz der Sterilität [1]: 100,0% | Anzahl von Körnern der Rispe bei freier Bestäubung [1]: 100,8 | Anzahl von Körnern der Rispe im Isolator [1]: 0,0 | Prozentsatz des Ansetzens von Körnern bei freier Bestäubung [1]: 68,7%
